Measurements as given in PubChem BioAssay (NCI).
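Grown in 96-well plates, cells were treated for 48 hours with each compound at five concentrations. Insufficient inhibition: endpoint recorded as highest concentration tested. Abbreviation: GI50, concentration required for 50% inhibition of growth. At the TGI there is no net growth.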

Experiments:
Assay in all cases: growth of human tumour cells (NCI), 48 h
MDA-MB-435 = system: MDA-MB-435
MDA-N = system: MDA-N
DMS 114 small cell lung = system: DMS 114 small cell lung
DMS 273 small cell lung = system: DMS 273 small cell lung
KM20L2 colon = system: KM20L2 colon
M19-MEL melanoma = system: M19-MEL melanoma
SNB-78 CNS = system: SNB-78 CNS
HOP-18 NSCLC = system: HOP-18 NSCLC

`OCc1cn(Cc2cccc(Cl)c2)c2ccccc12` was tested, and the GI50 (MDA-MB-435) was 14.8 µM and the TGI (MDA-MB-435) was 35.5 µM.
In the case of `Cc1c(N=Nc2ccc([N+](=O)[O-])cc2)nc2scc(-c3ccccc3)n12`, the TGI (MDA-MB-435) is reported as > 100 µM and the TGI (MDA-N) is reported as > 100 µM.
For `C1CC[N-]CC1.C1CC[N-]CC1.C1CC[N-]CC1.C1CC[N-]CC1.[Cl][Rh][Cl]`, the GI50 (MDA-MB-435) was 4.09 µM and the TGI (MDA-MB-435) was 32.4 µM.
`NC(=O)c1cnc(N[C@@H]2CCCC[C@@H]2N)nc1Nc1cccc(-n2nccn2)c1` was tested, and the GI50 (MDA-MB-435) was 3.03 µM and the TGI (MDA-MB-435) was 10.9 µM.
`Cc1ccc(NC(=O)CC2C(=O)Nc3ccccc3S2=O)cc1C` (configuration not stated) was tested, and the TGI (DMS 114 small cell lung) was > 100 µM, the TGI (DMS 273 small cell lung) was > 100 µM and the TGI (KM20L2 colon) was > 100 µM. For the same compound, the TGI (M19-MEL melanoma) was > 100 µM and the TGI (SNB-78 CNS) was > 100 µM.
In the case of `Cc1cn(C2CC(F)C(CO)O2)c(=O)[nH]c1=O` (configuration not stated), the GI50 (MDA-MB-435) is reported as > 100 µM and the TGI (MDA-MB-435) is reported as > 100 µM.
With `CCOP(=O)(OCC)C(NC(c1ccccc1)c1ccccc1)c1ccccc1` (configuration not stated) the GI50 (MDA-MB-435) was 1.36 µM and the TGI (MDA-MB-435) was 8.89 µM.
Compound `OCCCCC#Cc1ccccc1C#Cc1ccccc1` has a GI50 (MDA-MB-435) of 13.7 µM and a TGI (MDA-MB-435) of 27.2 µM.
`CC1=C([Se]CC(OC(=O)CC[Se]c2ccccc2)C(=O)NCCCCCC(=O)OCc2ccccc2)C(=O)c2ccccc2C1=O` (configuration not stated) was tested, and the GI50 (MDA-MB-435) was 2.45 µM and the TGI (MDA-MB-435) was 7.45 µM.
With `CC(CN(CP(=O)([O-])[O-])CP(=O)([O-])[O-])N(CP(=O)([O-])[O-])CP(=O)([O-])[O-].N.N.[Pt+2]` (configuration not stated) the GI50 (DMS 273 small cell lung) was > 100 µM, the TGI (DMS 273 small cell lung) was > 100 µM and the GI50 (HOP-18 NSCLC) was 26.1 µM. The TGI (HOP-18 NSCLC) was > 100 µM, the GI50 (KM20L2 colon) was > 100 µM and the TGI (KM20L2 colon) was > 100 µM. For the same compound, the GI50 (SNB-78 CNS) was > 100 µM and the TGI (SNB-78 CNS) was > 100 µM.
With `O=c1cccc(C#CC#C[C@H]2O[C@@H]2CO)o1` the GI50 (MDA-MB-435) was 0.474 µM and the TGI (MDA-MB-435) was 1.21 µM.
`CCCC[C@H]1C(=O)O[C@H](C)[C@H](NC(=O)c2cccc(NC=O)c2O)C(=O)O[C@@H](C)[C@@H]1OC(=O)CC(C)C` was tested, and the TGI (MDA-MB-435) was 44.6 µM and the TGI (MDA-N) was 51.9 µM.
`COc1ccc(/C=N/N=C(\N)NO)cc1OC` was tested, and the TGI (DMS 114 small cell lung) was 92.5 µM, the TGI (DMS 273 small cell lung) was > 100 µM and the TGI (KM20L2 colon) was > 100 µM. The TGI (M19-MEL melanoma) was > 100 µM and the TGI (SNB-78 CNS) was > 100 µM.
`N[C@@H](Cc1c[nH]c2ccccc12)C(=O)NC1CCN(C(=O)c2c[nH]c3ccccc23)CC1` was tested, and the GI50 (MDA-MB-435) was > 100 µM and the TGI (MDA-MB-435) was > 100 µM.
For `CC(=O)CCCCCCCCCCCC[C@@H]1CC[C@H](C)[C@H](O)N1`, the TGI (DMS 114 small cell lung) was > 100 µM, the TGI (DMS 273 small cell lung) was > 100 µM and the TGI (HOP-18 NSCLC) was > 100 µM. The TGI (KM20L2 colon) was > 100 µM, the TGI (M19-MEL melanoma) was > 100 µM and the TGI (SNB-78 CNS) was > 100 µM.
Compound `CCCCCCCCCCC/C(=N/O)c1ccc(O)c2ncccc12` has a TGI (DMS 114 small cell lung) of 6.79 µM, a TGI (DMS 273 small cell lung) of 4.79 µM and a TGI (HOP-18 NSCLC) of 9.59 µM. The TGI (KM20L2 colon) was 17.6 µM, the TGI (M19-MEL melanoma) was 4.97 µM and the TGI (SNB-78 CNS) was > 100 µM.
In the case of `O=C1C(Cl)C(c2cccc(O)c2)N1n1cnc2ccccc2c1=O` (configuration not stated), the TGI (DMS 114 small cell lung) is reported as > 100 µM, the TGI (DMS 273 small cell lung) is reported as > 100 µM and the TGI (HOP-18 NSCLC) is reported as > 100 µM. For the same compound, the TGI (KM20L2 colon) was > 100 µM, the TGI (M19-MEL melanoma) was > 100 µM and the TGI (SNB-78 CNS) was > 100 µM.
`C(=N\Nc1ccccn1)/c1ccccn1` was tested, and the GI50 (MDA-MB-435) was 0.483 µM and the TGI (MDA-MB-435) was > 100 µM.
`CN(C)CCCn1c2c(c3cnccc3c1=O)C(=O)c1ccccc1-2` gave a GI50 (MDA-MB-435) of 0.49 µM and a TGI (MDA-MB-435) of 2.48 µM.
`Oc1ccc(/C=N\Nc2ccccn2)c(O)c1` was tested, and the GI50 (MDA-MB-435) was 1.37 µM and the TGI (MDA-MB-435) was > 100 µM.
`N#CC(=S)Nc1cccc(Cl)c1` was tested, and the TGI (MDA-MB-435) was > 100 µM and the TGI (MDA-N) was > 100 µM.
With `Cc1c(/C=N/NS(=O)(=O)c2ccccc2)no[n+]1[O-]` the TGI (DMS 114 small cell lung) was > 100 µM, the TGI (HOP-18 NSCLC) was > 100 µM and the TGI (KM20L2 colon) was > 100 µM.
In the case of `CCCCn1c2cc(OCc3cn(-c4ccc(Cl)cc4)nn3)ccc2c2ccnc(C)c21`, the GI50 (MDA-MB-435) is reported as 9.47 µM and the TGI (MDA-MB-435) is reported as > 33.3 µM.
In the case of `[N-]=[N+]=NC(c1cn(C2CC(O)C(CO)O2)c(=O)[nH]c1=O)C(Br)I` (configuration not stated), the TGI (DMS 114 small cell lung) is reported as > 100 µM, the TGI (DMS 273 small cell lung) is reported as > 100 µM and the TGI (KM20L2 colon) is reported as > 100 µM. For the same compound, the TGI (M19-MEL melanoma) was > 100 µM and the TGI (SNB-78 CNS) was > 100 µM.
For `Cc1ccc(C(CN(C)C)C(=O)c2ccccc2)cc1` (configuration not stated), the GI50 (MDA-MB-435) was 2.45 µM and the TGI (MDA-MB-435) was 8.92 µM.
In the case of `CC1=C(/C=C/C(C)=C\C=C\C(C)=C\C(=O)Nc2ccc3c(c2)OCO3)C(C)(C)CCC1`, the GI50 (MDA-MB-435) is reported as 16.7 µM, the TGI (MDA-MB-435) is reported as > 100 µM and the GI50 (MDA-N) is reported as 55.7 µM. The TGI (MDA-N) was > 100 µM.
`COc1ccc(C=C2C(=O)OC(C)(C)OC2=O)cc1OC` was tested, and the TGI (DMS 114 small cell lung) was > 100 µM, the TGI (KM20L2 colon) was > 100 µM and the TGI (M19-MEL melanoma) was > 100 µM. For the same compound, the TGI (SNB-78 CNS) was > 100 µM.
For `[Cl][Bi]([O]c1ccccn1)[O]c1ccccn1`, the GI50 (DMS 114 small cell lung) was 57 µM, the TGI (DMS 114 small cell lung) was > 100 µM and the GI50 (DMS 273 small cell lung) was > 100 µM. For the same compound, the TGI (DMS 273 small cell lung) was > 100 µM, the GI50 (KM20L2 colon) was > 100 µM and the TGI (KM20L2 colon) was > 100 µM.
